Experimental data taken from ChEMBL document CHEMBL5465560, “Selectivity Literature for EUbOPEN Chemogenomic Library” (2024).
Values belong to the molecule of their own block, whether it stands above or below them.

Assays:
[1] = molecular target: Calcium/calmodulin-dependent protein kinase type 1 (Homo sapiens) (UniProt Q14012); test: Selectivity interaction (ActivX KiNativ screen (kinase selectivity in THP-1 cell lysates)) EUB0000639a CAMK1; format: subcellular; settings: lysate, at 0.2 µM
[2] = molecular target: Mitogen-activated protein kinase 3 (Homo sapiens, UniProt P27361); test: Selectivity interaction (ActivX KiNativ screen (kinase selectivity in THP-1 cell lysates)) EUB0000639a MAPK3; format: subcellular; settings: lysate
Sequence of Mitogen-activated protein kinase 3 (P27361 whole entry): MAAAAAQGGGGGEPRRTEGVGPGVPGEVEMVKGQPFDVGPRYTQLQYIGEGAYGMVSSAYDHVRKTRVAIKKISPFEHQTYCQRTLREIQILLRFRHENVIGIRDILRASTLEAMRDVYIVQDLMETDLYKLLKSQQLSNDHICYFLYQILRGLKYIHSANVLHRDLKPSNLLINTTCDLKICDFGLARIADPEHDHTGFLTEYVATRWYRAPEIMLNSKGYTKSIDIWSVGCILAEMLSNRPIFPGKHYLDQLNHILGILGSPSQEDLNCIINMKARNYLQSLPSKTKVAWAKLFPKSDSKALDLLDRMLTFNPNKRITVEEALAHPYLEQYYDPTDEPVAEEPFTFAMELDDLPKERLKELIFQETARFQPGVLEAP

[3] = molecular target: EML4-ALK (Homo sapiens) (UniProt Q9UM73+Q9HC35); test: (§1) Selectivity interaction (ProQinase) EUB0000171b ALK; format: protein assay
Sequence of EML4-ALK (Homo sapiens) (Q9HC35 whole entry partner): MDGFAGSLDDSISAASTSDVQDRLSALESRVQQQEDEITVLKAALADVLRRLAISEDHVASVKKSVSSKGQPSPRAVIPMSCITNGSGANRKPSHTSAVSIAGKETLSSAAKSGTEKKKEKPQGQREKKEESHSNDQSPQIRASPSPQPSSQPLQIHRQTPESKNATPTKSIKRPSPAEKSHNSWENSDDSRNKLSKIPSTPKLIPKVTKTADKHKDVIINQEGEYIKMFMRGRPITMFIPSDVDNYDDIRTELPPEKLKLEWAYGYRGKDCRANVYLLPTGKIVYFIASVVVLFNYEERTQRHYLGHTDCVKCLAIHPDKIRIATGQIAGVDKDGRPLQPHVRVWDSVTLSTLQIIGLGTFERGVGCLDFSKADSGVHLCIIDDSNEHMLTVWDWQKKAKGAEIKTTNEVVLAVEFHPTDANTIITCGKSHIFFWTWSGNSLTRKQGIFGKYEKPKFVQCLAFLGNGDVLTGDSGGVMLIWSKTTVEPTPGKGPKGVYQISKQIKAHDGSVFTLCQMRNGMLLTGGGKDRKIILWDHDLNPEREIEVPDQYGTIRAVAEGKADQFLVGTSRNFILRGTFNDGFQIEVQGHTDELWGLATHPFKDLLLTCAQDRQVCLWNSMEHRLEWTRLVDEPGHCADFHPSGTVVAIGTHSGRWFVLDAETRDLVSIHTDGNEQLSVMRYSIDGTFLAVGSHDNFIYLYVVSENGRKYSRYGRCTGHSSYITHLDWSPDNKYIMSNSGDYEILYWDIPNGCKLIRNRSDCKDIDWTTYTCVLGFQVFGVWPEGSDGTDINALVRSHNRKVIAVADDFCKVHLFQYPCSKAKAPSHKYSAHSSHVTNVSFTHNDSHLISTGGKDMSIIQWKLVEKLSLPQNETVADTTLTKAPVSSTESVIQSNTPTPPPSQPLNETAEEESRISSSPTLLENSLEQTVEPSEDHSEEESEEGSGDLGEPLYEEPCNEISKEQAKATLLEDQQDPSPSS
Sequence of EML4-ALK (Homo sapiens) (Q9UM73 19-1620 limits assumed): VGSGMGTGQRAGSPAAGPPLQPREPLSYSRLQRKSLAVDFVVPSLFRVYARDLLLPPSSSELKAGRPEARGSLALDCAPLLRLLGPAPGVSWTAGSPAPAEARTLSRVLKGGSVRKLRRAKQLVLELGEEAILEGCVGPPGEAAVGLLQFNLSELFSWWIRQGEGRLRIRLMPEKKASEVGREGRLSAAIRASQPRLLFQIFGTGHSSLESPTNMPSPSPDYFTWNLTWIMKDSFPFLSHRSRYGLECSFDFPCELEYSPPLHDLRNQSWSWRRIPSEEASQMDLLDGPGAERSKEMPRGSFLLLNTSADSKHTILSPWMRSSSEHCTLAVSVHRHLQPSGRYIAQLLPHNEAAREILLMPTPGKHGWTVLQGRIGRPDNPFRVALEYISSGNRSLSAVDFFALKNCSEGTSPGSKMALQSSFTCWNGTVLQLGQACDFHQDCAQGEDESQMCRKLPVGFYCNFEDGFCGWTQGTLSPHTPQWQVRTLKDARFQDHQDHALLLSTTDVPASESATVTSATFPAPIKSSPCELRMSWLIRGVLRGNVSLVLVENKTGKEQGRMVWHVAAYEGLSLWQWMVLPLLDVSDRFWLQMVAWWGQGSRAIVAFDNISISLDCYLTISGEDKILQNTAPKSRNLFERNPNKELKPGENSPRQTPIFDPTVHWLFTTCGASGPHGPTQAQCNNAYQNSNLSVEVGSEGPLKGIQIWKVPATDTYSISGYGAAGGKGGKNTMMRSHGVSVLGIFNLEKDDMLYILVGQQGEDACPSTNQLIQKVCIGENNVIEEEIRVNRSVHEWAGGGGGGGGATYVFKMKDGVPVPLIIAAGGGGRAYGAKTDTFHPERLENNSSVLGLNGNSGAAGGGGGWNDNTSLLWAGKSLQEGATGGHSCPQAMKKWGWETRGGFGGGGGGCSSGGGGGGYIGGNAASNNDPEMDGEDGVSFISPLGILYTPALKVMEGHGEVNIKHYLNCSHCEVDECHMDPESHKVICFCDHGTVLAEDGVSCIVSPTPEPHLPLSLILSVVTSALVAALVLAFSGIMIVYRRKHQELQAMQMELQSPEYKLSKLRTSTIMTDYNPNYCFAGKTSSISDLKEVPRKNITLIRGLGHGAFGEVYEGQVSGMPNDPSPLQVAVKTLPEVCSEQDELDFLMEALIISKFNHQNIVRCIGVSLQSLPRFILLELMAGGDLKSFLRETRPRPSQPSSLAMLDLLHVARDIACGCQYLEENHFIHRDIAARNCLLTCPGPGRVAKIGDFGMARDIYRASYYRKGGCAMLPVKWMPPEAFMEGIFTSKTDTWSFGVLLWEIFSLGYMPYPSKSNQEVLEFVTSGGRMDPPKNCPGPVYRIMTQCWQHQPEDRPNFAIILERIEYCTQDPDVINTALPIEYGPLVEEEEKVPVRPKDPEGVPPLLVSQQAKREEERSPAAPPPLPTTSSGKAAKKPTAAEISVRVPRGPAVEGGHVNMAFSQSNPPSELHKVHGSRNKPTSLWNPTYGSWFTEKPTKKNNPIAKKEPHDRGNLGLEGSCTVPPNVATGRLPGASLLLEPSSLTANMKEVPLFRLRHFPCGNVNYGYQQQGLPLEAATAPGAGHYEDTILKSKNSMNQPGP

[4] = tested on: NPM/ALK (Nucleophosmin/ALK tyrosine kinase receptor) (Homo sapiens), Q9UM73+P06748 [F1174L]; test: as §1; format: protein assay
[5] = tested on: EML4-ALK (Homo sapiens), Q9UM73+Q9HC35 [UNDEFINED MUTATION]; test: as §1; format: protein assay; settings: at 5 µM
Sequence of EML4-ALK (Homo sapiens), Q9UM73+Q9HC35 [UNDEFINED MUTATION] (Q9HC35 whole entry, looked up, change not shown): as the sequence (Q9HC35 whole entry partner) above
Sequence of EML4-ALK (Homo sapiens), Q9UM73+Q9HC35 [UNDEFINED MUTATION] (Q9UM73 whole entry, looked up, change not shown): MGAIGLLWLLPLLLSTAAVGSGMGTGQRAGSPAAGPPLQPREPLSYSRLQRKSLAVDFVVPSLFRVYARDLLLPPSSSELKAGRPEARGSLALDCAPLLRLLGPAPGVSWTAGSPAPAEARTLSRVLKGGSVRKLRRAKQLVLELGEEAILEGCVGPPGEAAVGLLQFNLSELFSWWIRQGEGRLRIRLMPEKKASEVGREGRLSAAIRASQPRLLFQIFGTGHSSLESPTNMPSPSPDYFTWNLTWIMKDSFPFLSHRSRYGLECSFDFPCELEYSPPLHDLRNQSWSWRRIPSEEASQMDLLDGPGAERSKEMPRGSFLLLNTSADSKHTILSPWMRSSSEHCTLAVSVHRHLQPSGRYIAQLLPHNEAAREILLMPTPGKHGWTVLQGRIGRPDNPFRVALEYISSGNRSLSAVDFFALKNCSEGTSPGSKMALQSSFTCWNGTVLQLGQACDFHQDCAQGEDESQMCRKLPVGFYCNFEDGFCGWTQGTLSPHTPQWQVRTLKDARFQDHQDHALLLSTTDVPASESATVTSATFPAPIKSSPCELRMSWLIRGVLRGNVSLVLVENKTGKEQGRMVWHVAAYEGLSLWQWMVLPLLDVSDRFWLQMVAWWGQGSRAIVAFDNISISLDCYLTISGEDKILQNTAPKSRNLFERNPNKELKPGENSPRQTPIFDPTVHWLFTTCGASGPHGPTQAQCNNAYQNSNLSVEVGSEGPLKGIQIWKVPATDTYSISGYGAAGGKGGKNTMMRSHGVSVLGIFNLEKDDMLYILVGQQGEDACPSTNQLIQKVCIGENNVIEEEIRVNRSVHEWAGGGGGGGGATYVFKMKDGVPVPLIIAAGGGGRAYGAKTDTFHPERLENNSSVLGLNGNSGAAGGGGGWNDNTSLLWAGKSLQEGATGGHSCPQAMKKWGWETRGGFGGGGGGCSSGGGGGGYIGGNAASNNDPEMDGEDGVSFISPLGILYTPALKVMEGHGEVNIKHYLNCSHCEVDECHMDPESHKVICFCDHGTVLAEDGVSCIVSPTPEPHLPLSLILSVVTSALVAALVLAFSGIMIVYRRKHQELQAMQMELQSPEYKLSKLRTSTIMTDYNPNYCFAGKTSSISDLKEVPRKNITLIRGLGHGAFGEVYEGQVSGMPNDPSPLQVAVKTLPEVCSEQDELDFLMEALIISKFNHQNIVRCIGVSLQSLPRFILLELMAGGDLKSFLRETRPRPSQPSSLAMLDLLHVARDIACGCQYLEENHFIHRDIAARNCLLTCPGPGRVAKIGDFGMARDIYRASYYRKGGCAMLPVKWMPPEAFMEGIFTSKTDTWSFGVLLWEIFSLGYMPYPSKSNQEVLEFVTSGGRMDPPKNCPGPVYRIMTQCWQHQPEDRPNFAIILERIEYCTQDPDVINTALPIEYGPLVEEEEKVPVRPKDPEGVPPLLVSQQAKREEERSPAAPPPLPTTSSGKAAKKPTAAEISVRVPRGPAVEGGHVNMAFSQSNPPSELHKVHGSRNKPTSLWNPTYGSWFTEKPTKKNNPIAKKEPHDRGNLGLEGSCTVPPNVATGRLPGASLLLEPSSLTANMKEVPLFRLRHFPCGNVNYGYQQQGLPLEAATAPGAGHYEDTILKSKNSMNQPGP

[6] = molecular target: T1, Homeodomain-interacting protein kinase 4 (Homo sapiens) (UniProt Q8NE63); test: Selectivity interaction (Ambit KINOMEscan and KiNATiv profiling in Jurkat cells) EUB0000090b HIPK4; format: cell-based; settings: at 1 µM
T1 sequence (whole entry): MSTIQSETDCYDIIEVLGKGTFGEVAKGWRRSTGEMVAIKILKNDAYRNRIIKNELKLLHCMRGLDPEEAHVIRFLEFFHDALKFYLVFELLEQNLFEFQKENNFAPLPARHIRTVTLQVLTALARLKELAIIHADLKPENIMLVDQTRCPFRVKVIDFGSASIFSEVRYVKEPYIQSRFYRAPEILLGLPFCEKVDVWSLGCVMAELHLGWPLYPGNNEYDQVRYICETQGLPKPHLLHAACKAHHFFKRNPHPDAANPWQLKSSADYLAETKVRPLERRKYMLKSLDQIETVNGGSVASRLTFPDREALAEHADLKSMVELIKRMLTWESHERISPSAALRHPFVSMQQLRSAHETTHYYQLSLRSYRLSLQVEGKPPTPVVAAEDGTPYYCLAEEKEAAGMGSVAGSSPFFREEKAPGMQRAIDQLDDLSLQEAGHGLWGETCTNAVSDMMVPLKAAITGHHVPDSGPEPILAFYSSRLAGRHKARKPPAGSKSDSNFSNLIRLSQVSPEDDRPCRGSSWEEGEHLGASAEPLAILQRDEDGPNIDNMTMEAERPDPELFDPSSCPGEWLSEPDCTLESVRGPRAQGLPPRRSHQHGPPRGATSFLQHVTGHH

[7] = molecular target: T2, Serine/threonine-protein kinase BRSK1 (Homo sapiens) (UniProt Q8TDC3); test: Selectivity interaction (KinomeScan (DiscoverX)) EUB0000045b BRSK1
T2 sequence (whole entry): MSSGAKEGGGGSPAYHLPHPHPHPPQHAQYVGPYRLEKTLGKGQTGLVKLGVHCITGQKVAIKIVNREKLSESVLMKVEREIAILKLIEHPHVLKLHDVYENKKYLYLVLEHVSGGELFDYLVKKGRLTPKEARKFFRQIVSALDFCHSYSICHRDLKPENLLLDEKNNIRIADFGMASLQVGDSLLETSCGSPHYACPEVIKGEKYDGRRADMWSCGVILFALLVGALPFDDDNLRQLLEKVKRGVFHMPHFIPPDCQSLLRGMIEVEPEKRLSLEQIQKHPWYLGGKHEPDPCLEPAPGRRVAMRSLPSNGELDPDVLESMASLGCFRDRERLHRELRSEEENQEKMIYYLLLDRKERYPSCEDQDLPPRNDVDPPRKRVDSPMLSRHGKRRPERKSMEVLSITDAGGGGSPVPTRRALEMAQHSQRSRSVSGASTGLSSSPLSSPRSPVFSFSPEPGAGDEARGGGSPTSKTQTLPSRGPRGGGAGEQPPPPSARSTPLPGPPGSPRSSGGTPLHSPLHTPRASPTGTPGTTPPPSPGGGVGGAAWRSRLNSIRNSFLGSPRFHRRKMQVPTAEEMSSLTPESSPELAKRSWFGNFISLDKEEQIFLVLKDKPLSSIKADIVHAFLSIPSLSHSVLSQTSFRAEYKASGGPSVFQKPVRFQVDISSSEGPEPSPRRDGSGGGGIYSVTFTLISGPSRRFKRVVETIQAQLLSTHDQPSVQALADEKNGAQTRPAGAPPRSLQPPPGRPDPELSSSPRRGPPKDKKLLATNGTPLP

[8] = tested on: Tyrosine-protein kinase ABL1 (Homo sapiens), P00519 [Q252H]; test: Selectivity interaction (KinomeScan (DiscoverX)) EUB0000092b ABL1; settings: at 10 µM
[9] = molecular target: T3, Serine/threonine-protein kinase RIO3 (Homo sapiens) (UniProt O14730); test: Selectivity interaction (KinomeScan (DiscoverX)) EUB0000618a RIOK3; settings: at 10 µM
T3 sequence (whole entry): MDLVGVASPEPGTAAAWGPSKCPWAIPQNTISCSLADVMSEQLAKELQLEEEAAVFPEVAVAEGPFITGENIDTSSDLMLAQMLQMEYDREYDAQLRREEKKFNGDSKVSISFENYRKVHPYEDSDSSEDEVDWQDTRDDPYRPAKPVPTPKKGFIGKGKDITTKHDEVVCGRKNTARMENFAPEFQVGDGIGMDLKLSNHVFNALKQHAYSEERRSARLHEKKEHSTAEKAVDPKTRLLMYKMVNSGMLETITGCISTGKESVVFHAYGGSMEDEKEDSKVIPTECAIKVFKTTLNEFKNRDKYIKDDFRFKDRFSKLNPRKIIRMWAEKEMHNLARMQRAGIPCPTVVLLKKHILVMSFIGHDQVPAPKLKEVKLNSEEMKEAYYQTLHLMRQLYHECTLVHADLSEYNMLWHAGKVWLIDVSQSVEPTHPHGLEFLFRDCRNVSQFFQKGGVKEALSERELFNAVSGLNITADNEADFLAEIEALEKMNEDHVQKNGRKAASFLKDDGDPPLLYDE

[10] = molecular target: Mitogen-activated protein kinase 10 (Homo sapiens, UniProt P53779); test: Selectivity interaction (ActivX KiNativ screen (ex vivo kinase selectivity in human PBMCs)) EUB0001619a MAPK10; format: cell-based; settings: PBMC, at 1 µM
[11] = molecular target: RAC-beta serine/threonine-protein kinase (Homo sapiens) (UniProt P31751); test: Selectivity interaction (KinomeScan (DiscoverX)) EUB0001619a AKT2; settings: at 1 µM

Sequence of Calcium/calmodulin-dependent protein kinase type 1 (Homo sapiens) (Q14012 whole entry, looked up): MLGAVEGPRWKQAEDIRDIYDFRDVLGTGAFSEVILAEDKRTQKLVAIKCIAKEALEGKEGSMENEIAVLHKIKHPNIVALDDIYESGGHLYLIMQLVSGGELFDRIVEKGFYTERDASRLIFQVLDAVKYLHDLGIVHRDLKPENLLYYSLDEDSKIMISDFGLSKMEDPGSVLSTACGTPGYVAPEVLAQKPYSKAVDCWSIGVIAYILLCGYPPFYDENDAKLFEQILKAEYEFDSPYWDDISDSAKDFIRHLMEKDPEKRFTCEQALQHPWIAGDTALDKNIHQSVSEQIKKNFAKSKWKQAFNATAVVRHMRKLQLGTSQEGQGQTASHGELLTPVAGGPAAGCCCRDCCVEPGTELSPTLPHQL

% of inhibition [1]: -2.3% | % of inhibition ([2]; at 0.01 µM): 0.3% | % of inhibition ([2]; at 0.04 µM): 0.4% | % of inhibition ([2]; at 0.2 µM): 5% | % of inhibition ([2]; at 1 µM): 5.6% | % of inhibition ([2]; at 5 µM): -4.9%
Compound: CC[C@@H]1[C@H](F)C(=O)N[C@@H]1COc1nccc2cc(C(N)=O)c(OC)cc12 [ZIMLOVISERTIB]

% of control ([3]; at 1 µM): 91% | % of control ([3]; at 5 µM): 89% | % of control ([4]; at 1 µM): 104% | % of control ([4]; at 5 µM): 106% | % of control [5]: 80%
Compound: C=CC(=O)Nc1cccc(C(=O)Nc2ccc(Nc3cc(-c4[nH]c(SC)nc4C)ccn3)cc2)c1

Compound: CN(C)C/C=C/C(=O)Nc1ccc(C(=O)N2CCCC(Nc3ncc(Cl)c(-c4c[nH]c5ccccc45)n3)C2)cc1 (stereo not drawn)
% of control [6]: 47%

Compound: C=CC(=O)Nc1cc(-n2c(=O)ccc3cnc4ccc(-c5ccc(NS(C)(=O)=O)cc5)cc4c32)ccc1C
% of control ([7]; at 1 µM): 100% | % of control ([7]; at 10 µM): 97%

Compound: CCC(=O)N1CCN(c2ccc(-n3c(=O)ccc4cnc5ccc(-c6cnc7ccccc7c6)cc5c43)cc2C(F)(F)F)CC1
% of control [8]: 99%

Compound: O[C@H]1CC[C@H](Nc2ncc3nc(Nc4c(F)cc(F)cc4F)n([C@H]4CCOC4)c3n2)CC1
% of control [9]: 100%

Compound: N#Cc1cccc(-c2c[nH]c3ncnc(N4CCOCC4)c23)c1
% of inhibition [10]: 5% | % of control [11]: 100%
